Data published in patent publication US7846945B2, “Piperdine-based inhibitors of sodium glucose co-transporter 2 and methods of their use” (Lexicon Pharmaceuticals, Inc., priority 2007, dated 2010).

molecular target: T1, Human sodium/glucose co-transporter type 2 (SGLT2) (Homo sapiens, UniProt P31639); assay: In vitro human SGLT2 inhibition assay (14C-AMG uptake); assay type: cell-based; conditions: HEK293 cells expressing human HA-SGLT2; potent = SGLT2 IC50 of less than about 500 nM; read-out: SGLT2 IC50 (potent SGLT2 inhibitor mark)
T1 construct: HA; expressed in transfected cells
T1 sequence (P31639 1-672): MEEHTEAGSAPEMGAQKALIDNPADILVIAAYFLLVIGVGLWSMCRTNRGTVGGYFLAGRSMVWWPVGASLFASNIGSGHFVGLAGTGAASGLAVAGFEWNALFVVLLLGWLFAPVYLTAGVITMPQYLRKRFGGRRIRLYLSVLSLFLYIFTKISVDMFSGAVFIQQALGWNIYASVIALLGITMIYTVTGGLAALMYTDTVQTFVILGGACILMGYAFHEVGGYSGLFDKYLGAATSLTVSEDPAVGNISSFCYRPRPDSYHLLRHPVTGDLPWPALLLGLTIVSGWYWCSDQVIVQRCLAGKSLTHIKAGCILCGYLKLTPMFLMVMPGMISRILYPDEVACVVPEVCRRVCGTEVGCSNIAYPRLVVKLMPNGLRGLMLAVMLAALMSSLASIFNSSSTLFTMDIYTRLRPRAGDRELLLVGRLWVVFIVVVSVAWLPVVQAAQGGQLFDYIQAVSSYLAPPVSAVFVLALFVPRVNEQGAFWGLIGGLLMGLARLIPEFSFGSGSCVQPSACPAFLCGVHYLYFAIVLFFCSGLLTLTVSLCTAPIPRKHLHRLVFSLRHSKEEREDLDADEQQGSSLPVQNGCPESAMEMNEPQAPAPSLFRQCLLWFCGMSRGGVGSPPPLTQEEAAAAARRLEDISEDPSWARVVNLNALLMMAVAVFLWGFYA
Method: HEK293 cells were transfected with the human HA-SGLT2-pIRESpuro2 vector and the bulk stable cell line was selected in presence of 0.5 μg/ml of puromycin. Human HA-SGLT2 cells were maintained in DMEM media containing 10% FBS, 1% GPS and 0.5 μg/ml of puromycin.
The HEK293 cells expressing the human HA-SGLT2 were seeded in 384 well plates (30,000 cells/well) in DMEM media containing 10% FBS, 1% GPS and 0.5 μg/ml of puromycin, then incubated overnight at 37 C, 5% CO2. Cells were then washed with uptake buffer (140 mM NaCl, 2 mM KCl, 1 mM CaCl2, 1 mM MgCl2, 10 mM HEPES, 5 mM Tris, 1 mg/ml bovine serum albumin (BSA), pH 7.3). Twenty microliters of uptake buffer with or without testing compounds were added to the cells. Then, 20 microliters of uptake buffer containing ^14C-AMG (100 nCi) were added to the cells. The cell plates were incubated at 37° C., 5% CO2 for 1-2 hours. After washing the cells with uptake buffer, scintillation fluid was added (40 microliters/well) and ^14C-AMG uptake was measured by counting radioactivity using a scintillation coulter (TopCoulter NXT; Packard Instruments).
The IC50 of a compound with regard to a given target is determined by fitting the relevant data, using the Levenburg Marquardt algorithm, to the equation: y=A+((B−A)/(1+((C/x)^D))) wherein A is the minimum y value; B is the maximum y value; C is the IC50; and D is the slope.

SMILES	IC50 [µM]
COC1O[C@@H](c2ccc(Cl)c(Cc3ccc(OCCO)cc3)c2)[C@H](O)[C@@H](O)[C@@H]1O (stereo partly drawn) [(2S,3R,4R,5S)-2-{4-Chloro-3-[4-(2-hydroxy-ethoxy)-benzyl]-phenyl}-6-methoxy-tetrahydro-pyran-3,4,5-triol]	< 0.5
CCOc1ccc(Cc2cc([C@@H]3OC(OCCCO)[C@@H](O)[C@H](O)[C@H]3O)ccc2Cl)cc1 (stereo partly drawn) [(2S,3R,4R,5S)-2-[4-Chloro-3-(4-ethoxy-benzyl)-phenyl]-6-(3-hydroxy-propoxy)-tetrahydro-pyran-3,4,5-triol]	< 0.5
CCOc1ccc(Cc2cc([C@@H]3O[C@H]([S+]([O-])CC)[C@@H](O)[C@H](O)[C@H]3O)ccc2Cl)cc1 (stereo partly drawn) [(2S,3R,4R,5S,6R)-2-[4-Chloro-3-(4-ethoxy-benzyl)-phenyl]-6-ethanesulfinyl-tetrahydro-pyran-3,4,5-triol]	< 0.5
CCOc1ccc(Cc2cc([C@H]3[C@H](O)[C@@H](O)[C@H](O)CN3C(C)=O)ccc2Cl)cc1 [1-{(2S,3S,4S,5R)-2-[4-Chloro-3-(4-ethoxy-benzyl)-phenyl]-3,4,5-trihydroxy-piperidin-1-yl}-ethanone]	< 0.5
COC1O[C@@H](c2ccc(Cl)c(Cc3ccc(Oc4nccs4)cc3)c2)[C@H](O)[C@@H](O)[C@@H]1O (stereo partly drawn) [(2S,3R,4R,5S)-2-{4-Chloro-3-[4-(thiazol-2-yloxy)-benzyl]-phenyl}-6-methoxy-tetrahydro-pyran-3,4,5-triol]	< 0.5
COC1O[C@@H](c2ccc(Cl)c(Cc3ccc(Oc4cncnc4)cc3)c2)[C@H](O)[C@@H](O)[C@@H]1O (stereo partly drawn) [(2S,3R,4R,5S)-2-{4-Chloro-3-[4-(pyrimidin-5-yloxy)-benzyl]-phenyl}-6-methoxy-tetrahydro-pyran-3,4,5-triol]	< 0.5
CCOc1ccc(Cc2cc([C@@H]3O[C@H](SCc4ccco4)[C@@H](O)[C@H](O)[C@H]3O)ccc2Cl)cc1 [(2S,3R,4R,5S,6R)-2-[4-Chloro-3-(4-ethoxy-benzyl)-phenyl]-6-(furan-2-ylmethylsulfanyl)-tetrahydro-pyran-3,4,5-triol]	< 0.5
COC1O[C@@H](c2ccc(Cl)c(Cc3ccc(OC(=S)N(C)C)cc3)c2)[C@H](O)[C@@H](O)[C@@H]1O (stereo partly drawn) [Dimethyl-thiocarbamic acid O-{4-[2-chloro-5-((2S,3R,4R,5S)-3,4,5-trihydroxy-6-methoxy-tetrahydro-pyran-2-yl)-benzyl]-phenyl} ester]	< 0.5
CCOc1ccc(Cc2cc([C@@H]3O[C@H](SCCNC(C)=O)[C@@H](O)[C@H](O)[C@H]3O)ccc2Cl)cc1 [N-(2-{(2R,3S,4R,5R,6S)-6-[4-Chloro-3-(4-ethoxy-benzyl)-phenyl]-3,4,5-trihydroxy-tetrahydro-pyran-2-ylsulfanyl}-ethyl)-acetamide]	< 0.5
COC1O[C@@H](c2ccc(Cl)c(Cc3ccc(Oc4ccncc4)cc3)c2)[C@H](O)[C@@H](O)[C@@H]1O (stereo partly drawn) [(2S,3R,4R,5S)-2-{4-Chloro-3-[4-(pyridin-4-yloxy)-benzyl]-phenyl}-6-methoxy-tetrahydro-pyran-3,4,5-triol]	< 0.5
COC1O[C@@H](c2ccc(Cl)c(Cc3ccc(OCCSC)cc3)c2)[C@H](O)[C@@H](O)[C@@H]1O (stereo partly drawn) [(2S,3R,4R,5S)-2-{4-Chloro-3-[4-(2-methylsulfanyl-ethoxy)-benzyl]-phenyl}-6-methoxy-tetrahydro-pyran-3,4,5-triol]	< 0.5
COc1ccc(Sc2cc([C@@H]3OC(OC)[C@@H](O)[C@H](O)[C@H]3O)ccc2Cl)cc1 (stereo partly drawn) [(2S,3R,4R,5S)-2-[4-Chloro-3-(4-methoxy-phenylsulfanyl)-phenyl]-6-methoxy-tetrahydro-pyran-3,4,5-triol]	< 0.5
CCOc1ccc(Cc2cc([C@@H]3O[C@H]([S+](C)[O-])[C@@H](O)[C@H](O)[C@H]3O)ccc2Cl)cc1 (stereo partly drawn) [(2S,3R,4R,5S,6R)-2-[4-Chloro-3-(4-ethoxy-benzyl)-phenyl]-6-methanesulfinyl-tetrahydro-pyran-3,4,5-triol]	< 0.5
CCOc1ccc(C(=O)c2cc([C@@H]3O[C@H](OC)[C@@H](O)[C@H](O)[C@H]3O)ccc2Cl)cc1 [[2-Chloro-5-((2S,3R,4R,5S,6S)-3,4,5-trihydroxy-6-methoxy-tetrahydro-pyran-2-yl)-phenyl]-(4-ethoxy-phenyl)-methanone]	< 0.5
COC1O[C@@H](c2ccc(Cl)c(Cc3ccc(O[C@H]4CCN(C)C4)cc3)c2)[C@H](O)[C@@H](O)[C@@H]1O (stereo partly drawn) [(2S,3R,4R,5S)-2-{4-Chloro-3-[4-((S)-1-methyl-pyrrolidin-3-yloxy)-benzyl]-phenyl}-6-methoxy-tetrahydro-pyran-3,4,5-triol]	< 0.5
CCOc1ccc(Cc2cc([C@@H]3OC(OCCOC)[C@@H](O)[C@H](O)[C@H]3O)ccc2Cl)cc1 (stereo partly drawn) [(2S,3R,4R,5S)-2-[4-Chloro-3-(4-ethoxy-benzyl)-phenyl]-6-(2-methoxy-ethoxy)-tetrahydro-pyran-3,4,5-triol]	< 0.5
CCOc1ccc(C(O)c2cc([C@@H]3O[C@H](OC)[C@@H](O)[C@H](O)[C@H]3O)ccc2Cl)cc1 (stereo partly drawn) [(2S,3R,4R,5S,6S)-2-{4-Chloro-3-[(4-ethoxy-phenyl)-hydroxy-methyl]-phenyl}-6-methoxy-tetrahydro-pyran-3,4,5-triol]	< 0.5
CCOc1ccc(Cc2cc([C@@H]3O[C@H](SC[C@H](N)C(=O)O)[C@@H](O)[C@H](O)[C@H]3O)ccc2Cl)cc1 [(R)-2-Amino-3-{(2R,3S,4R,5R,6S)-6-[4-chloro-3-(4-ethoxy-benzyl)-phenyl]-3,4,5-trihydroxy-tetrahydro-pyran-2-ylsulfanyl}-propionic acid]	< 0.5
CCOc1ccc(Cc2cc([C@@H]3O[C@H](SC)[C@@H](O)[C@H](O)[C@H]3O)ccc2Cl)cc1 [(2S,3R,4R,5S,6R)-2-[4-Chloro-3-(4-ethoxy-benzyl)-phenyl]-6-methylsulfanyl-tetrahydro-pyran-3,4,5-triol]	< 0.5
CCOc1ccc(Cc2cc([C@@H]3O[C@H](SC4CCCC4)[C@@H](O)[C@H](O)[C@H]3O)ccc2Cl)cc1 [(2S,3R,4R,5S,6R)-2-[4-Chloro-3-(4-ethoxy-benzyl)-phenyl]-6-cyclopentylsulfanyl-tetrahydro-pyran-3,4,5-triol]	< 0.5
CCOc1ccc(Cc2cc([C@@H]3O[C@H](SCC(F)(F)F)[C@@H](O)[C@H](O)[C@H]3O)ccc2Cl)cc1 [(2S,3R,4R,5S,6R)-2-[4-Chloro-3-(4-ethoxy-benzyl)-phenyl]-6-(2,2,2-trifluoro-ethylsulfanyl)-tetrahydro-pyran-3,4,5-triol]	< 0.5
CO[C@H]1O[C@@H](c2ccc(Cl)c(Cc3ccc(O[C@@H]4CCOC4)cc3)c2)[C@H](O)[C@@H](O)[C@@H]1O [(2S,3R,4R,5S,6S)-2-(4-Chloro-3-{4-[(R)-(tetrahydro-furan-3-yl)oxy]-benzyl}-phenyl)-6-methoxy-tetrahydro-pyran-3,4,5-triol]	< 0.5
CCOc1ccc(-c2cccc([C@@H]3OC(OC)[C@@H](O)[C@H](O)[C@H]3O)c2)cc1 (stereo partly drawn) [(2S,3R,4R,5S)-2-(4′-Ethoxy-biphenyl-3-yl)-6-methoxy-tetrahydro-pyran-3,4,5-triol]	< 0.5
CCOc1ccc(Cc2cc([C@@H]3OC(OCC(F)(F)F)[C@@H](O)[C@H](O)[C@H]3O)ccc2Cl)cc1 (stereo partly drawn) [(2S,3R,4R,5S)-2-[4-Chloro-3-(4-ethoxy-benzyl)-phenyl]-6-(2,2,2-trifluoro-ethoxy)-tetrahydro-pyran-3,4,5-triol]	< 0.5
CCOc1ccc(Cc2cc([C@@H]3O[C@H](SC4CCOC4C)[C@@H](O)[C@H](O)[C@H]3O)ccc2Cl)cc1 (stereo partly drawn) [(2S,3R,4R,5S,6R)-2-[4-Chloro-3-(4-ethoxy-benzyl)-phenyl]-6-(2-methyl-tetrahydro-furan-3-ylsulfanyl)-tetrahydro-pyran-3,4,5-triol]	< 0.5
CCOc1ccc(Cc2cc([C@@H]3OC(OCC(O)CO)[C@@H](O)[C@H](O)[C@H]3O)ccc2Cl)cc1 (stereo partly drawn) [(2S,3R,4R,5S)-2-[4-Chloro-3-(4-ethoxy-benzyl)-phenyl]-6-(2,3-dihydroxy-propoxy)-tetrahydro-pyran-3,4,5-triol]	< 0.5
